From PubChem BioAssay (NCI)
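96-well plates; 48 h exposure; 5 concentrations. Endpoints by linear interpolation between flanking doses. Not reached: highest tested concentration assigned. Here, GI50 denotes the concentration required for 50% inhibition of growth. TGI marks complete inhibition of growth.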

What was measured:
Test in all cases: growth of human tumour cells (NCI), 48 h
DU-145 prostate = system: DU-145 prostate
EKVX NSCLC = system: EKVX NSCLC
HS 578T breast = system: HS 578T breast
HT29 colon = system: HT29 colon
MALME-3M melanoma = system: MALME-3M melanoma
MCF7 breast = system: MCF7 breast
OVCAR-5 ovarian = system: OVCAR-5 ovarian
SF-268 CNS = system: SF-268 CNS
SN12C renal = system: SN12C renal
U251 CNS = system: U251 CNS

Row | Structure (SMILES) | GI50 (DU-145 prostate) [µM] | TGI (DU-145 prostate) [µM] | GI50 (EKVX NSCLC) [µM] | TGI (EKVX NSCLC) [µM] | GI50 (HS 578T breast) [µM] | TGI (HS 578T breast) [µM] | GI50 (HT29 colon) [µM] | TGI (HT29 colon) [µM] | GI50 (MALME-3M melanoma) [µM] | TGI (MALME-3M melanoma) [µM] | GI50 (MCF7 breast) [µM] | TGI (MCF7 breast) [µM] | GI50 (OVCAR-5 ovarian) [µM] | TGI (OVCAR-5 ovarian) [µM] | GI50 (SF-268 CNS) [µM] | TGI (SF-268 CNS) [µM] | GI50 (SN12C renal) [µM] | TGI (SN12C renal) [µM] | GI50 (U251 CNS) [µM] | TGI (U251 CNS) [µM]
1 | CCN1C(=O)N(CC)C2C1NN=c1s/c(=C\c3ccccn3)c(=O)n12 (stereo unspecified) | 2.4 | > 100 | 4.45 | > 100 | 2.76 | > 100 | 0.681 | > 100 | 1.63 | > 100 | 0.468 | > 100 | 4.61 | > 100 | 88.5 | > 100 | 5.29 | > 100 | 2.96 | > 100
2 | COc1ccc(N(/C=C/C(=O)C(F)(F)F)CC(=O)c2ccc(F)cc2)cc1 | 36.2 | > 100 | 25.4 | > 100 | 27.8 | 89.1 | 46.2 | > 100 | 16.5 | 41.4 | 43.1 | > 100 | 34.1 | 93.3 | 20.3 | 45.2 | 14.7 | 33.8 | 13.1 | 28.3
3 | O1[As]2O[As]3O[As]1O[As](O2)O3 | 2.08 | 7.21 | 1.54 | 7.12 | 0.981 | > 42.5 | 0.876 | 4.67 | 0.477 | 2.08 | 0.388 | 2.29 | 1.41 | 5.32 | 0.456 | 1.86 | 0.881 | 4.79 | 0.294 | 1.25
4 | Nc1ncnc2c1c(-c1ccc(Oc3ccccc3)cc1)nn2C[C@@H]1SSC[C@H]1O | 2.26 | 8.97 | 0.568 | 10.5 | 2.96 | 11.2 | 0.732 | 7.98 | 1.25 | 6.45 | 0.898 | 3.79 | 3.47 | 26.6 | 0.199 | 15.1 | 2.31 | 10.2 | 2.48 | 8.21
5 | CC[C@H](CO)Nc1nc(NCc2ccccc2)c2ncn(C(C)C)c2n1 | 19.9 | > 100 |  | 44.1 | 20.8 | 68.2 | 24.3 | > 100 |  | 50 |  | > 81.5 | 28 | > 96.4 |  | > 75.1 | 27 | > 100 | 40 | > 100
6 | Cc1ccc(C(=O)NC2CCC2)cc1-c1ccc(C(=O)NCC2CC2)cc1 | > 25 | > 25 | > 25 | > 25 | > 25 | > 25 | > 25 | > 25 | > 25 | > 25 | > 25 | > 25 | > 25 | > 25 | > 25 | > 25 | > 25 | > 25 | > 25 | > 25
7 | Cc1nn(-c2ccc(Cl)cc2)c2nc3c(nc12)C(=O)C(=O)c1ccccc1-3 | 1.98 | 3.57 | 7.36 | > 100 | 2.08 | 5.5 | 2.01 | 3.99 | 1.43 | 3.86 | 27.9 | > 100 | 12 | > 100 | 12.4 | > 100 | 2.7 | 12.6 | 3.21 | 10.1
8 | COC(=N)c1c(N)[n+]([O-])c2ccc(F)cc2[n+]1[O-] | > 100 | > 100 | 99.1 | > 100 | > 100 | > 100 | > 100 | > 100 | 66.3 | > 100 | 76.4 | > 100 | > 100 | > 100 | > 100 | > 100 | > 100 | > 100 | > 100 | > 100
